Counter-ions that a name gives are not always drawn. Like-named read-outs stand apart in the source and are kept apart here.
Biological target: T1, human urotensin II receptor (Homo sapiens, UniProt Q9UKP6)
T1 construct: expressed in transfected cells; host or cells: NIH3T3 cells
T1 sequence (Q9UKP6 1-389): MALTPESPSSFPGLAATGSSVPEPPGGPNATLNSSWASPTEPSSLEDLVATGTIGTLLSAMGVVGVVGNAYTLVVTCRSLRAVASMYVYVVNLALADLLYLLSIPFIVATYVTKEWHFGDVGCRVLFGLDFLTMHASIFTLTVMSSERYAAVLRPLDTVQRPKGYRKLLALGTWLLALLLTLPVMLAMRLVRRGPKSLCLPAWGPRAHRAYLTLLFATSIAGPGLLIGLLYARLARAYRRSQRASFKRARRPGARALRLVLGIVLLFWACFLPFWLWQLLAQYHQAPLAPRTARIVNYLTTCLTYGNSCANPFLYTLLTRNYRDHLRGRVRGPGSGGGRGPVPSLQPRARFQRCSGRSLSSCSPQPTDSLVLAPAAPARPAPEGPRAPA
Assay: Receptor Selection and Amplification (R-SAT) functional assay, NIH3T3 cells transfected with human urotensin II receptor and β-galactosidase marker
Type: cell-based
Conditions: for pEC50 / EC50: eight doses in triplicate
Procedure: The functional receptor assay, Receptor Selection and Amplification Technology (R-SAT™), was used (with minor modifications from the procedure described previously (Brann, M. R. U.S. Pat. No. 5,707,798, 1998; Chem. Abstr. 1998, 128, 111548) to screen compounds for efficacy at the UII receptor. The RSAT assay was conducted as described herein.
Briefly, NIH3T3 cells were grown in tissue culture treated rollerbottles to 40-80% confluence in Dulbecco's modified Eagle's medium (DMEM) supplemented with 10% bovine calf serum (Hyclone) and 1% penicillin/streptomycin/glutamine (Invitrogen). Cells were transfected for 12-18 hours with the human urotensin II receptor and the β-galactosidase marker. After transfection, the cells were trypsinized, harvested and frozen in DMEM containing 10% DMSO. Frozen cells were later thawed and tested for a response to a control compound to perform quality control before initiation of pharmacological testing, ensuring the correct pharmacological response and sufficient sensitivity. To initiate the pharmacological assay, cells were thawed rapidly and prepared in DMEM media containing 0.4% calf serum (Hyclone), 30% UltraCulture (Biowhittaker), and 1% penicillin/streptomycin/glutamine (Invitrogen), and then plated at 10,000-40,000 cells per well of a 96½ area plate that contained either the test compounds or reference ligands. Cells were then grown in a humidified atmosphere with 5% ambient CO2 for five days. Media was then removed from the plates and marker gene activity was measured by the addition of the beta-galactosidase substrate ONPG (in PBS with 5% NP-40). The resulting colorimetric reaction was measured in a spectrophotometric plate reader (Titertek Inc.) at […].
pEC50 represents the negative logarithm of the concentration of ligand that caused 50% activation of the basal receptor response. Percent activation was calculated as the difference between the absorbance measurements in the absence of added ligand compared with that in the presence of saturating concentrations of ligand normalized to the absorbance difference for the reference ligand, which was assigned a value of 100%.
Results were determined in R-SAT assays and are expressed as pEC50, the negative of the log EC50 in molarity. Results are the average±standard deviation of 2-X determinations of the EC50 where each compound was tested in eight doses in triplicate.

[1] = NIH3T3, Table 3, percent activation normalized to the reference ligand assigned 100%, read-out: Efficacy
[2] = Table 3, negative of the log EC50 in molarity, average ± standard deviation (or range) of determinations
[3] = NIH3T3, Table 4, % efficacy normalized to UII at 100%
[4] = Table 4, negative of the log EC50 in molarity, average ± standard deviation of 2-5 determinations

Row | SMILES | Emax [1] [%] | pEC50 [2] | Emax [3] [%] | EC50 [4] [nM] | also measured
1 | Cc1cc(Br)ccc1C(=O)OC(CCN(C)C)c1ccc(Cl)cc1.Cl (centres unmarked) [4g, 1-(4-Chlorophenyl)-3-dimethylamino-propyl 4-bromo-2-methyl-benzoate HCl] | 95 ± 37 | 5.97 ± 0.24 | – | – | –
2 | CN(C)CCC(NC(=O)c1ccc(N(C)C)cc1)c1ccc(Cl)cc1.O=C(O)C(=O)O (centres unmarked) [5e, N-[1-(4-Chlorophenyl)-3-dimethylaminopropyl]-4-dimethylamino-benzamide oxalate] | 145 ± 25 | 5.87 ± 0.17 | – | – | –
3 | Cc1ccc(C(CCN(C)C)NC(=O)C=Cc2ccccc2)cc1 (centres unmarked) [B7, N-[3-Dimethylamino-1-(4-methylphenyl)propyl]cinnamic amide] | – | – | 97 ± 6 | 1550 | –
4 | Cc1ccccc1C(=O)OC(CCN(C)C)c1ccc(Cl)cc1.Cl (centres unmarked) [4a, 1-(4-Chlorophenyl)-3-dimethylamino-propyl 2-methyl-benzoate HCl] | 126 ± 34 | 5.77 ± 0.01 | – | – | –
5 | CN(C)CCC(OC(=O)Nc1ccc(C(C)(C)C)cc1)c1ccc(Cl)cc1 (centres unmarked) [7c, N-[1-(4-Chlorophenyl)-3-dimethylaminopropyloxycarbonyl]-4-tert-butylphenyl-amine] | 105 ± 8 | – | – | – | EC50 [2]: 1780 nM
6 | CN(C)CCC(NC(=O)c1ccc(-c2ccccc2)cc1)c1ccc(Cl)cc1 (single isomer, unassigned; (-)) [(−) 5o, (−)-N-[1-(4-Chlorophenyl)-3-dimethylamino-propyl]-4-phenyl-benzamide oxalate] | 112 to 114 | – | – | – | EC50 [2]: 1150 to 1200 nM
7 | COc1cccc(NC(=O)NC(CCN(C)C)c2ccc(Cl)cc2)c1 (centres unmarked) [8b, 1-[1-(4-Chlorophenyl)-3-dimethylaminopropyl]-3-(3-methoxyphenyl)-carbamide oxalate] | 147 ± 26 | 5.87 ± 0.17 | – | – | –
8 | COc1ccc(C=CC(=O)NC(CCN(C)C)c2ccc3ccccc3c2)cc1 (centres unmarked) [C9, N-[3-Dimethylamino-1-(2-naphthyl)propyl]-4-methoxy-cinnamic amide HCl] | – | – | 106 ± 16 | 380 | –
9 | CN(C)CCC(NC(=O)Cc1ccccc1)c1ccc(Cl)cc1 (centres unmarked) [A1, N-[1-(4-Chlorophenyl)-3-dimethylamino-propyl]-2-phenylacetamide HCl] | – | – | 76 ± 5 | 1860 | –
10 | Cc1ccc(C(=O)NC(CCN(C)C)c2ccc(Cl)cc2)c(C)c1.O=C(O)C(=O)O (centres unmarked) [5i, N-[1-(4-Chlorophenyl)-3′-dimethylamino-propyl]-2,4-dimethyl-benzamide oxalate] | 147 ± 29 | 5.81 ± 0.06 | – | – | –
11 | CN(C)CCC(NC(=O)/C=C/c1ccccc1)c1ccc(Cl)cc1 (centres unmarked) [A7, N-[1-(4-Chlorophenyl)-3-dimethylamino-propyl]-3-cinnamic amide HCl] | – | – | 128 ± 10 | 427 | –
12 | CN(C)CCC(OC(=O)c1ccc2ccccc2c1)c1ccc(Cl)cc1.Cl (centres unmarked) [4l, 1-(4-Chlorophenyl)-3-dimethylamino-propyl naphthalene-2-carboxylate HCl] | 49 ± 28 | 5.68 ± 0.04 | – | – | –
13 | CCc1ccccc1C(=O)OC(CCN(C)C)c1ccc(Cl)cc1.Cl (centres unmarked) [4b, 1-(4-Chlorophenyl)-3-dimethylamino-propyl 2-ethyl-benzoate HCl] | 128 ± 31 | 5.89 ± 0.05 | – | – | –
14 | Cc1cc(C)c(C(=O)NC(CCN(C)C)c2ccc(Cl)cc2)cc1C.O=C(O)C(=O)O (centres unmarked) [5m, N-[1-(4-Chlorophenyl)-3-dimethylaminopropyl]-2,4,5-trimethyl-benzamide oxalate] | 152 ± 20 | 5.75 ± 0.22 | – | – | –
15 | COc1ccc(CCC(=O)NC(CCN(C)C)c2ccc(C)cc2)cc1 (centres unmarked) [B6, N-[3-Dimethylamino-1-(4-methylphenyl)propyl]-3-(4-methoxyphenyl)propionamide HCl] | – | – | 67 ± 14 | 5370 | –
16 | CN(C)CCC(NC(=O)c1ccc(-c2ccccc2)cc1)c1ccc(Cl)cc1.O=C(O)C(=O)O (single isomer, unassigned; (+)) [(+) 5o, (+)-N-[1-(4-Chlorophenyl)-3-dimethylamino-propyl]-4-phenyl-benzamide oxalate] | – | – | – | – | EC50 [2]: 12.3 to 27.5 nM; Efficacy (Table 3, percent activation normalized to the reference ligand assigned 100%, oxalate): 104-108%
17 | COc1ccc(CC(=O)NC(CCN(C)C)c2ccc(Cl)cc2)cc1 (centres unmarked) [A3, N-[1-(4-Chlorophenyl)-3-dimethylamino-propyl]-2-(4-methoxyphenyl)acetamide HCl] | – | – | 65 ± 18 | 1510 | –
18 | CN(C)CCC(OC(=O)c1cc2ccccc2n1C)c1ccc(Cl)cc1 (centres unmarked) [4n, 1-(4-Chlorophenyl)-3-dimethylamino-propyl 1-methyl-indole-2-carboxylate HCl] | 104 ± 34 | – | – | – | EC50 [2]: 1910 nM
19 | CN(C)CCC(NC(=O)CCc1ccccc1)c1ccc2ccccc2c1 (centres unmarked) [C4, N-[3-Dimethylamino-1-(2-naphthyl)propyl]-3-phenyl-propionamide HCl] | – | – | 107 ± 22 | 603 | –
20 | COc1ccc(CC(=O)NC(CCN(C)C)c2ccc(C)cc2)cc1 (centres unmarked) [B3, N-[3-Dimethylamino-1-(4-methylphenyl)propyl]-2-(4-methoxyphenyl)acetamide HCl] | – | – | 62 ± 5 | 5890 | –
21 | CC(C(=O)NC(CCN(C)C)c1ccc2ccccc2c1)c1ccc(C(F)(F)F)cc1 (centres unmarked) [C5, N-[3-Dimethylamino-1-(2-naphthyl)propyl]-2-(4-trifluoromethylphenyl)propionamide HCl] | – | – | 75 ± 1 | 372 | –
22 | CN(C)CCC(NC(=O)Nc1ccc(C(F)(F)F)cc1)c1ccc(Cl)cc1 (centres unmarked) [8i, 1-[1-(4-Chlorophenyl)-3-dimethylaminopropyl]-3-(4-trifluoromethylphenyl)-carbamide oxalate] | 93 to 120 | – | – | – | EC50 [2]: 97.7 to 155 nM

From patent US20070043104A1, “UII-modulating compounds and their use” (priority 2005, published 2007)
